Measurements from patent publication US20080194646A1, “Methods For Avoiding Edema in the Treatment of Metabolic, Inflammatory, and Cardiovascular Disorders” (priority 2005, published 2008).

Assay: plasma hydrolysis of prodrug esters of (−) CPTA
Format: in vitro ADME
Conditions: human plasma (heparinized, pooled), 37° C., 125 or 250 μM prodrug; read-out: Plasma T1/2
Procedure: This example illustrates the plasma hydrolysis of various prodrug esters of the (S)-enantiomer of CPTA at physiological conditions. Hydrolysis was monitored and analyzed by HPLC. The hydrolytic product was identified by comparison to authentic (−) CPTA and the hydrolytic rates were calculated.
Human plasma (heparinized, pooled) was obtained from Golden West Biololgicals Inc., USA; Plasma incubation was carried out in a Water Bath Shaker (New Brunswick Scientific, Inc.); Sample analyses were carried out on Agilent HPLC 1100 system.
Prepare 31.25 or 62.5 mM prodrug stock solutions in 100% DMSO. Add 4 μL of 31.25 or 62.5 mM prodrug stock solutions to 1.0 mL of plasma in a microcentrifuge tube to make plasma concentration at 125 or 250 μM, mix gently. Aliquots of 50 μL are transferred to 15 microcentrifuge vials. Three samples are immediately removed to a freezer at about −80° C. (0 time point), the remaining samples are incubated in a bath shaker at 37° C. Three samples are removed at 30 min, 2, 7 and 24 hr, and stored at −80° C. until analysis. The relative concentrations of MBX-compounds are determined by HPLC methods. If there are enough data points, the hydrolytic rate can be calculated using WinNonlin software. Table 10 provides a summary of plasma half-lives of some pro-drug esters and FIGS. 20A-20G illustrate the hydrolytic curves of those prodrug esters. […]

C=C/C=C(\C=C)C(=O)NCCOC(=O)C(Oc1cccc(C(F)(F)F)c1)c1ccc(Cl)cc1 (stereo not shown) [Compound 19.4]
half-life: < 1 h
